Columns and labels:
[1] = target: human full-length BTK Kinase (Homo sapiens (Human), UniProt Q06187); assay: Human BTK LanthaScreen Assay (TR-FRET); format: biochemical; conditions: 50 μM ATP, 70 pM BTK, 100 nM FAM-Srctide; run with and without 60 minutes pre-incubation (table does not say which); read-out: BTK Inhibition IC50
human EGFR kinase domain = human EGFR kinase domain (Homo sapiens (Human), UniProt P00533); assay: Human EGFR LanthaScreen Selectivity Assay (TR-FRET); format: biochemical; conditions: 20 μM ATP, 600 pM EGFR kinase domain; run with and without 60 minutes pre-incubation
Protocol: The kinase reaction mixtures were incubated at room temperature for 60 minutes before stopping the kinase activity by the addition of 15 mM EDTA. The extent of peptide phosphorylation by EGFR was detected using a Terbium-conjugated anti-phospho-Tyrosine antibody (Tb-PT66 antibody, Invitrogen # PV3557).

Human B cells = assay: Human Primary B Cell Proliferation Assay; format: cell-based; conditions: 50 μg/mL anti-human IgM F(ab')2 for 72 hours, 3H-thymidine incorporation
Protocol: Human B cells were purified from buffy coats using the human B cell RosetteSep kit per manufacturer's instructions. Purified cells were resuspended in RPMI-10% HIFCS, 2 mM L-glutamine, 100 U/mL penicillin, 100 μg/ml streptomycin, incubated with compounds for 1 hour at 37° C. and then stimulated with 50 μg/mL anti-human IgM F(ab′)2 for 72 hours. ^3H-thymidine was included in the culture media for the final 8-16 hours. Cells were harvested and ^3H-thymidine incorporation was measured.

human full-length BTK Kinase, sequence (Q06187 whole entry, the tested form may be a part): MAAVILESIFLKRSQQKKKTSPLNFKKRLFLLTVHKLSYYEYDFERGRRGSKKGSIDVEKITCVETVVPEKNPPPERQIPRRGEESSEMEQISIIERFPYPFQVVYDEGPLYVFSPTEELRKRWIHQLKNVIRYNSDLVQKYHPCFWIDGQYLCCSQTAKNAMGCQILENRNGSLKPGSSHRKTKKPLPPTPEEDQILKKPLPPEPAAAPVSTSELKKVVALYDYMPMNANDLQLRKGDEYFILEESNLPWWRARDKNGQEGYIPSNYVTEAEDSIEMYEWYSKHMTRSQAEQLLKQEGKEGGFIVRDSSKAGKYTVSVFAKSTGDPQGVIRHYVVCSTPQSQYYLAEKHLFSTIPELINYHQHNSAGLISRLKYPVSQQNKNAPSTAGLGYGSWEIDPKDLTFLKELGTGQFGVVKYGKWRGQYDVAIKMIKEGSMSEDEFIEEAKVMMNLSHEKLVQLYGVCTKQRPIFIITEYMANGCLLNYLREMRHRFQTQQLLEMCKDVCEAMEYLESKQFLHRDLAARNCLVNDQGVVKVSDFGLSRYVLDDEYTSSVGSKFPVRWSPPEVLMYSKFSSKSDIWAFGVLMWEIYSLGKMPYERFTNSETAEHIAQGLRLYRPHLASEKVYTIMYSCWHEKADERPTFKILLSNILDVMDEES
human EGFR kinase domain, sequence (P00533 712-979): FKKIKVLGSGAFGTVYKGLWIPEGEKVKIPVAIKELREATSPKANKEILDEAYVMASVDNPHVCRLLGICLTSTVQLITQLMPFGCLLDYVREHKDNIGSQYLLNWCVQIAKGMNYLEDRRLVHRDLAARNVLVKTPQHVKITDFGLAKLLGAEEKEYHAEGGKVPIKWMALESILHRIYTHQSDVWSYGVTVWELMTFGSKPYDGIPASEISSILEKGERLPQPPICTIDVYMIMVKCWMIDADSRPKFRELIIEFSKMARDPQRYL

NC(=O)c1c(-c2ccc(Oc3ccc(Cl)cc3)cc2)nn([C@@H]2CCCN(C(=O)/C=C/CO)C2)c1N [Example 131, 5-amino-3-[4-(4-chlorophenoxy)phenyl]-1-{(3R)-1-[(2E)-4-hydroxybut-2-enoyl]piperidin-3-yl}-1H-pyrazole-4-carboxamide]
IC50 [1]: 2.3 nM
IC50 (human EGFR kinase domain): 2200 nM

NC(=O)c1c(-c2ccc(Oc3ccc(Cl)cc3)cc2)nn([C@@H]2CCCN(C(=O)/C=C/CF)C2)c1N [Example 132, 5-amino-3-[4-(4-chlorophenoxy)phenyl]-1-{(3R)-1-[(2E)-4-fluorobut-2-enoyl]piperidin-3-yl}-1H-pyrazole-4-carboxamide]
IC50 [1]: 1.1 nM

NC(=O)c1c(-c2ccc(Oc3ccc(F)cc3F)cc2)nn([C@@H]2CCCN(C(=O)/C=C/CF)C2)c1N [Example 145, 5-amino-3-[4-(2,4-difluorophenoxy)phenyl]-1-{(3R)-1-[(2E)-4-fluorobut-2-enoyl]piperidin-3-yl}-1H-pyrazole-4-carboxamide]
IC50 [1]: 2.8 nM
IC50 (human EGFR kinase domain): 2180 nM

NC(=O)c1c(-c2ccc(Oc3ccc(F)cc3F)cc2)nn([C@@H]2CCCN(C(=O)/C(F)=C/CO)C2)c1N [Example 146, 5-amino-3-[4-(2,4-difluorophenoxy)phenyl]-1-{(3R)-1-[(2Z)-2-fluoro-4-hydroxybut-2-enoyl]piperidin-3-yl}-1H-pyrazole-4-carboxamide]
IC50 [1]: 48 nM

CC(C)(O)/C=C/C(=O)N1CCC[C@@H](n2nc(-c3ccc(Oc4ccc(F)cc4F)cc3)c(C(N)=O)c2N)C1 [Example 147, 5-amino-3-[4-(2,4-difluorophenoxy)phenyl]-1-{(3R)-1-[(2E)-4-hydroxy-4-methylpent-2-enoyl]piperidin-3-yl}-1H-pyrazole-4-carboxamide]
IC50 [1]: 241 nM

C[C@H](O)/C=C/C(=O)N1CCC[C@@H](n2nc(-c3ccc(Oc4ccc(F)cc4F)cc3)c(C(N)=O)c2N)C1 [Example 148, 5-amino-3-[4-(2,4-difluorophenoxy)phenyl]-1-{(3R)-1-[(2E,4S)-4-hydroxypent-2-enoyl]piperidin-3-yl}-1H-pyrazole-4-carboxamide]
IC50 [1]: 39 nM

C[C@@H](O)/C=C/C(=O)N1CCC[C@@H](n2nc(-c3ccc(Oc4ccc(F)cc4F)cc3)c(C(N)=O)c2N)C1 [Example 149, 5-amino-3-(4-(2,4-difluorophenoxy)phenyl)-1-((R)-1-((R,E)-4-hydroxypent-2-enoyl)piperidin-3-yl)-1H-pyrazole-4-carboxamide]
IC50 [1]: 52 nM

NC(=O)c1c(-c2ccc(Oc3ccc(F)cc3F)cc2)nn([C@@H]2CCCN(C(=O)/C=C/CO)C2)c1N [Example 151, 5-amino-3-[4-(2,4-difluorophenoxy)phenyl]-1-{(3R)-1-[(2E)-4-hydroxybut-2-enoyl]-piperidin-3-yl}-1H-pyrazole-4-carboxamide]
IC50 [1]: 2.3 nM
IC50 (human EGFR kinase domain): 12100 nM

N#C/C=C/C(=O)N1CCC[C@@H](n2nc(-c3ccc(Oc4ccc(F)cc4F)cc3)c(C(N)=O)c2N)C1 [Example 152, 5-amino-1-{(3R)-1-[(2E)-3-cyanoprop-2-enoyl]piperidin-3-yl}-3-[4-(2,4-difluorophenoxy)phenyl]-1H-pyrazole-4-carboxamide]
IC50 [1]: 1.5 nM

NC(=O)c1c(-c2ccc(Oc3ncc(Cl)cc3F)cc2)nn([C@@H]2CCCN(C(=O)/C=C/CO)C2)c1N [Example 154, 5-amino-3-{4-[(5-chloro-3-fluoropyridin-2-yl)oxy]phenyl}-1-{(3R)-1-[(2E)-4-hydroxybut-2-enoyl]piperidin-3-yl}-1H-pyrazole-4-carboxamide]
IC50 [1]: 49 nM

NC(=O)c1c(-c2ccc(Oc3ncc(Cl)cc3F)cc2)nn([C@@H]2CCCN(C(=O)/C=C/C(F)F)C2)c1N [Example 155, 5-amino-3-{4-[(5-chloro-3-fluoropyridin-2-yl)oxy]phenyl}-1-{(3R)-1-[(2E)-4,4-difluorobut-2-enoyl]piperidin-3-yl}-1H-pyrazole-4-carboxamide]
IC50 [1]: 0.7 nM
IC50 (Human B cells): 2 nM
IC50 (human EGFR kinase domain): 106 nM

NC(=O)c1c(-c2ccc(Oc3ncc(Cl)cc3F)cc2)nn([C@@H]2CCCN(C(=O)/C=C/CF)C2)c1N [Example 156, 5-amino-3-{4-[(5-chloro-3-fluoropyridin-2-yl)oxy]phenyl}-1-{(3R)-1-[(2E)-4-fluorobut-2-enoyl]piperidin-3-yl}-1H-pyrazole-4-carboxamide]
IC50 [1]: 1.4 nM
IC50 (human EGFR kinase domain): 381 nM
